Test results published in US8211945B2, “Carba-sugar amine derivative and glycolipid metabolic disorder treating agent containing the same as active ingredient” (Seikagaku Corporation, priority 2001, dated 2012).
Residue numbers refer to the chain shown, from its start.

Assays:
Experiment in all cases: Mutant β-galactosidase activity in model cells, 4 days culture
Type in all cases: cell-based
[1] = target: T1, human mutant β-galactosidase R201H (Homo sapiens, UniProt P16278, R201H)
T1 construct: expressed in transfected cells; host or cells: SV40-immortalized skin fibroblasts of a β-galactosidase-deficient knockout mouse
T1 sequence (P16278 29-677 R201H): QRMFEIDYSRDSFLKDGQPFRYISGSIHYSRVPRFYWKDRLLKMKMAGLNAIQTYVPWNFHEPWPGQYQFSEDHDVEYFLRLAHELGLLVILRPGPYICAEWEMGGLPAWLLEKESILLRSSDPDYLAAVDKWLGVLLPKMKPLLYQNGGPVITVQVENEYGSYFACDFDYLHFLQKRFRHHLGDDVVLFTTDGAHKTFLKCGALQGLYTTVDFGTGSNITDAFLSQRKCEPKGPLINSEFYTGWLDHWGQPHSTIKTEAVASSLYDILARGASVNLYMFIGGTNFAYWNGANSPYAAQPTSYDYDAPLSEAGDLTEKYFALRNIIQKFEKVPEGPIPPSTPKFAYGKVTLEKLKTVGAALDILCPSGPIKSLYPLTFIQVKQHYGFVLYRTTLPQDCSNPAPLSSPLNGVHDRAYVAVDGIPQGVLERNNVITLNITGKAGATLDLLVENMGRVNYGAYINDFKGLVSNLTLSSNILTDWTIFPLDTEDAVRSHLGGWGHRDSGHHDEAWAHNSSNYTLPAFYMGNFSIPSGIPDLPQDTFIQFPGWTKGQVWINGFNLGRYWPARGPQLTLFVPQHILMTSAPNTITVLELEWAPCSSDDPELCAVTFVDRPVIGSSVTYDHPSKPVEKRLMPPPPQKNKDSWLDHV

[2] = target: T2, human mutant β-galactosidase R482C (Homo sapiens, UniProt P16278, R482C)
T2 construct: expressed in transfected cells; host or cells: SV40-immortalized skin fibroblasts of a β-galactosidase-deficient knockout mouse
T2 sequence (P16278 29-677 R482C): T1 sequence (P16278 29-677 R201H) with H173R, R454C

[3] = target: T3, human mutant β-galactosidase Y316C (Homo sapiens, UniProt P16278, Y316C)
T3 construct: expressed in transfected cells; host or cells: SV40-immortalized skin fibroblasts of a β-galactosidase-deficient knockout mouse
T3 sequence (P16278 29-677 Y316C): T1 sequence (P16278 29-677 R201H) with H173R, Y288C

| Compound | enzyme activity increased in comparison with the control ([1]; R201H, 0.2 μM) | Relative ratio (×100%) ([1]; R201H, substance 18 vs control) | enzyme activity ([1]; transferred gene R201H, 0.2 μM, 4 days) | Relative ratio (×100%) ([2]; R482C, substance 18 vs control) | enzyme activity ([2]; transferred gene R482C, 0.2 μM, 4 days) | Relative ratio (×100%) ([3]; Y316C, substance 18 vs control) | enzyme activity ([3]; transferred gene Y316C, 0.2 μM, 4 days) | enzyme activity, Control ([1]; transferred gene R201H, control substance 0.5 mM NB-DGJ) | enzyme activity, Control ([2]; transferred gene R482C, control substance 0.5 mM NB-DGJ) | enzyme activity, Control ([3]; transferred gene Y316C, control substance 0.5 mM NB-DGJ) |
| --- | --- | --- | --- | --- | --- | --- | --- | --- | --- | --- |
| CCCCCCCCN[C@@H]1C=C(CO)[C@H](O)C(O)[C@@H]1O (stereo partly drawn) [Substance 18, N-octyl-5a-carba-α-L-arabino-hexo-5(5a)-enopyranosylamine] | ≥ 150% | 4.46 ×100% | 86.05 | 4.25 ×100% | 0.62 | 3.44 ×100% | 0.80 | – | – | – |
| CCCCN1C[C@H](O)[C@@H](O)[C@@H](O)[C@H]1CO [Control, N-(n-butyl)-deoxygalactonojirimycin, reference compound] | – | – | – | – | – | – | – | 19.28 | 0.14 | 0.23 |
